Results published in patent US6511848B2, “Process for producing and multiplying lymphocytes” (Winfried Albert, priority 1996, dated 2003).

Experiments:
[1] = tested on: killer T cells; assay: Multiplication of killer T cells in serum-free DF medium; assay type: cell-based, human
Protocol: Mononuclear cells from peripheral blood (PBMNC) of human donors are isolated by means of gradient centrifugation (lymphocyte separation medium, BM), washed twice with phosphate-buffered saline solution and incubated at a density of 5-10×10^6 cells/ml DF medium according to Thiele and Lipsky (J. Immunol. 136 (1986) 1038-1048) with 250 μM leucyl-leucine-methyl ester (BM) for 20 minutes at room temperature. After washing with DF medium the cells are cultured at 37° C. in 8% CO2 atmosphere at a density of 1-2×10^6 per ml DF medium together with irradiated (2000 rad) HB654 cells or HB617 cells (stimulator cells; 2-5×10^5 per ml). On day 5-6 of the co-culture half to two thirds of the culture medium is renewed and irradiated stimulator cells (2-5×10^5 per ml) are added again. From day 8-10 after starting the co-culture, when all stimulator cells have been destroyed by the cytotoxic activity of the killer T cells, the killer T cells are used for the following examples. […]

[2] = tested on: Mononuclear cells from peripheral blood (PBMNC); assay: Multiplication of NK and T lymphocytes from mononuclear cells of human blood in serum-free medium; assay type: cell-based; settings: serum-free DF medium, single cytokine
Text: Mononuclear cells from peripheral blood (PBMNC) of a human donor are isolated by means of gradient centrifugation (lymphocyte separation medium, Boehringer Mannheim GmbH, Germany (BM)), washed twice with phosphate-buffered saline solution and taken up in DF medium at a density of 1×10^6 cells/ml and cultured in three separate preparations which are denoted A, B and C. […] Half of the culture medium (+cytokine(s)) is renewed every second day and the cell count is adjusted to ca. 1×10^6 cells/ml during the first 7 days and subsequently to ca. […].

CC[C@@H]1/C=C(\C)C[C@H](C)C[C@H](OC)[C@H]2O[C@@](O)(C(=O)C(=O)N3CCCC[C@H]3C(=O)O[C@H](/C(C)=C/[C@@H]3CC[C@@H](O)[C@H](OC)C3)[C@H](C)[C@@H](O)CC1=O)[C@H](C)C[C@@H]2OC [Ascomycin, reference compound]
multiplication of killer T cells (in words) ([1]; additive alone, without growth factor): no multiplication

IL-15: Human recombinant IL-15 (R & D Systems), 15 ng/ml, lymphocyte growth factor
doubling cycles after which proliferation stagnates ([1]; growth factor alone): 3 doubling cycles

TGFβ1: rh TGFβ1 (BM), 4 ng/ml
growth behaviour of the cells (in words) [2]: do not multiply
